The target of series [1] is Vascular endothelial growth factor receptor 2 (Homo sapiens, UniProt P35968). Description: Inhibition of human VEGFR2 using MEK1 as substrate incubated for 40 mins by gamma33P-ATP based scintillation counter analysis.
For series [2], the target named is Platelet-derived growth factor receptor beta (Homo sapiens, UniProt P09619). As to the kind of experiment: Inhibition of human PDGFRbeta using MEK1 as substrate incubated for 40 mins by gamma33P-ATP based scintillation counter analysis.
Platelet-derived growth factor receptor beta, sequence (P09619 whole entry): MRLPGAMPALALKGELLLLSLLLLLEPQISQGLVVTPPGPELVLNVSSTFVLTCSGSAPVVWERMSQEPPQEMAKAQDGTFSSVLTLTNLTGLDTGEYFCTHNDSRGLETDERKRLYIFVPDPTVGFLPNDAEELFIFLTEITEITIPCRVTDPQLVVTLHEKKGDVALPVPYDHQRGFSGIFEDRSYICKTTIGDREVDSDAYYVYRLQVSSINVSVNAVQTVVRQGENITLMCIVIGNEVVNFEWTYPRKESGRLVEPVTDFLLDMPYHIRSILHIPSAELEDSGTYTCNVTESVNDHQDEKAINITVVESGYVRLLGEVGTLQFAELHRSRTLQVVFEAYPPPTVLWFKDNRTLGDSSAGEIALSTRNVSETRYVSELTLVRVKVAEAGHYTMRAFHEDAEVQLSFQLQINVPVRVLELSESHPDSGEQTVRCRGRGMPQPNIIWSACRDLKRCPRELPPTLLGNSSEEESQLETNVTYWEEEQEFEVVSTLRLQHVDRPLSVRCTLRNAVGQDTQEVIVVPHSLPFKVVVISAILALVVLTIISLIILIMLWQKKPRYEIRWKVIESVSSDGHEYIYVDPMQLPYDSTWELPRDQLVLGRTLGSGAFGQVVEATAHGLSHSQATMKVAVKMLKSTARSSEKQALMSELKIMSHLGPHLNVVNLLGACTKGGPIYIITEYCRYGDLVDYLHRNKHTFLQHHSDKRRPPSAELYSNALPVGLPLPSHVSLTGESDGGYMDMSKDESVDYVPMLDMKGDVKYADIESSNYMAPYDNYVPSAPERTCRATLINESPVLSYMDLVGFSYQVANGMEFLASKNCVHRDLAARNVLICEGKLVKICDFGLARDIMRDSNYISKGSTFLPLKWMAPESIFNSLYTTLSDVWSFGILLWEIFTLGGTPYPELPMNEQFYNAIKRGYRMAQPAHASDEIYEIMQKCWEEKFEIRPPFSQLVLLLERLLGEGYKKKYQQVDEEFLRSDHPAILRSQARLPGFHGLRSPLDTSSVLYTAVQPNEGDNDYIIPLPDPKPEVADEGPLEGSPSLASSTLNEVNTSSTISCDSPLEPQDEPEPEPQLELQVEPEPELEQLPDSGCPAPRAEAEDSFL
For series [3], the target named is Mast/stem cell growth factor receptor Kit (Homo sapiens, UniProt P10721). As to the kind of experiment: Inhibition of human c-Kit using MEK1 as substrate incubated for 40 mins by gamma33P-ATP based scintillation counter analysis.
In series [4] the target is T1, Receptor-type tyrosine-protein kinase FLT3 (Homo sapiens, UniProt P36888).
T1 sequence (P36888 whole entry): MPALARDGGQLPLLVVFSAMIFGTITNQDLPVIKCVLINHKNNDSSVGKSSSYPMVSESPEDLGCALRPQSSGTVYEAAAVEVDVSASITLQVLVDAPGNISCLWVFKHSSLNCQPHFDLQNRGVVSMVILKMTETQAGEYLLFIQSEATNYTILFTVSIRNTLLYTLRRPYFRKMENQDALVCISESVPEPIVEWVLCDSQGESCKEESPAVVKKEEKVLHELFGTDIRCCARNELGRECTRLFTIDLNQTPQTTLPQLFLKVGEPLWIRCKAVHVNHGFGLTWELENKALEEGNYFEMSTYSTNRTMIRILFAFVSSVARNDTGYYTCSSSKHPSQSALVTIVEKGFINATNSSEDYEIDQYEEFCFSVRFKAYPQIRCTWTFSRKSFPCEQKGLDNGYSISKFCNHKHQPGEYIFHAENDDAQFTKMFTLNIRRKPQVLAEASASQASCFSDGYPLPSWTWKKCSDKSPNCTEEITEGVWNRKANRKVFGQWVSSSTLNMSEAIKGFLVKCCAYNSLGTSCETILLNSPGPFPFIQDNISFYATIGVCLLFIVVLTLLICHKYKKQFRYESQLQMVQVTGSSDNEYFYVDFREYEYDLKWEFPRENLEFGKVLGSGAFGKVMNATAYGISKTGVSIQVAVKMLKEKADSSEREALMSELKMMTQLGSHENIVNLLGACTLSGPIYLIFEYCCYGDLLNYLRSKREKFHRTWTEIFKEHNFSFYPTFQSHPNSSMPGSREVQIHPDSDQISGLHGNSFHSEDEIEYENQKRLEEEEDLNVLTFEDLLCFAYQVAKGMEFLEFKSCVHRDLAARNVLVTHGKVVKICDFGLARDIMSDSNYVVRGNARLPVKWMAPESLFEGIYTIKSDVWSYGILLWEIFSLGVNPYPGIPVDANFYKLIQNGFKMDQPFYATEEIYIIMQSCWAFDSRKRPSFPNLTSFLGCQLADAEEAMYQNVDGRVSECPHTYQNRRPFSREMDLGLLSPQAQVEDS
As to the kind of experiment: Inhibition of human FLT3 using MEK1 as substrate incubated for 40 mins by gamma33P-ATP based scintillation counter analysis.

In series [5] the target is Macrophage colony-stimulating factor 1 receptor (Homo sapiens, UniProt P07333). Description: Inhibition of human CSF1R using MEK1 as substrate incubated for 40 mins by gamma33P-ATP based scintillation counter analysis.
Macrophage colony-stimulating factor 1 receptor, sequence (P07333 whole entry): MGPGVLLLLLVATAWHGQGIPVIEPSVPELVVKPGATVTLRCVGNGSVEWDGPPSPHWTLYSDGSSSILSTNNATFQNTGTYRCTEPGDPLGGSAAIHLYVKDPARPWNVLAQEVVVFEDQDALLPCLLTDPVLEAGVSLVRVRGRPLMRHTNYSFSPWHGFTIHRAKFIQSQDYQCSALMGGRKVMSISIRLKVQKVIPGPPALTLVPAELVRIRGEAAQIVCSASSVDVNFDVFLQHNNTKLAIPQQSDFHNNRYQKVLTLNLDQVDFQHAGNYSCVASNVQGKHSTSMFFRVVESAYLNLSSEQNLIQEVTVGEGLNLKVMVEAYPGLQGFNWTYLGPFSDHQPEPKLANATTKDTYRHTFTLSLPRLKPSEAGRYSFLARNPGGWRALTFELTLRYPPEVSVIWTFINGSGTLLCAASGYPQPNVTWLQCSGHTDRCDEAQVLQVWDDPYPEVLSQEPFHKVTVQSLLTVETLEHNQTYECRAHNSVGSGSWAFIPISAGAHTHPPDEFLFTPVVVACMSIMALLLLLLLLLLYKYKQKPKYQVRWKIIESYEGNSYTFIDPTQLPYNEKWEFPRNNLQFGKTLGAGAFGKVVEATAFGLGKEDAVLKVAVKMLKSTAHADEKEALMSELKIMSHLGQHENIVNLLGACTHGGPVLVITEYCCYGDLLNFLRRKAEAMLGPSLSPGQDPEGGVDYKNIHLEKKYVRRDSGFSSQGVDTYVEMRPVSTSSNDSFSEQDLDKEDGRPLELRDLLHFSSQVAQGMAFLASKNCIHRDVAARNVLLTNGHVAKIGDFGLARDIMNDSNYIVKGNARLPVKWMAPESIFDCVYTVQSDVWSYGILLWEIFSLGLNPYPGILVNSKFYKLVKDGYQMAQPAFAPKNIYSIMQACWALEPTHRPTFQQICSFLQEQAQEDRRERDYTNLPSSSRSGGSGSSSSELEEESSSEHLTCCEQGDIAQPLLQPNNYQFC
The target in series [6] is Epidermal growth factor receptor (Homo sapiens, UniProt P00533). As to the kind of experiment: Inhibition of human EGFR using MEK1 as substrate incubated for 40 mins by gamma33P-ATP based scintillation counter analysis.
Epidermal growth factor receptor, sequence (P00533 whole entry): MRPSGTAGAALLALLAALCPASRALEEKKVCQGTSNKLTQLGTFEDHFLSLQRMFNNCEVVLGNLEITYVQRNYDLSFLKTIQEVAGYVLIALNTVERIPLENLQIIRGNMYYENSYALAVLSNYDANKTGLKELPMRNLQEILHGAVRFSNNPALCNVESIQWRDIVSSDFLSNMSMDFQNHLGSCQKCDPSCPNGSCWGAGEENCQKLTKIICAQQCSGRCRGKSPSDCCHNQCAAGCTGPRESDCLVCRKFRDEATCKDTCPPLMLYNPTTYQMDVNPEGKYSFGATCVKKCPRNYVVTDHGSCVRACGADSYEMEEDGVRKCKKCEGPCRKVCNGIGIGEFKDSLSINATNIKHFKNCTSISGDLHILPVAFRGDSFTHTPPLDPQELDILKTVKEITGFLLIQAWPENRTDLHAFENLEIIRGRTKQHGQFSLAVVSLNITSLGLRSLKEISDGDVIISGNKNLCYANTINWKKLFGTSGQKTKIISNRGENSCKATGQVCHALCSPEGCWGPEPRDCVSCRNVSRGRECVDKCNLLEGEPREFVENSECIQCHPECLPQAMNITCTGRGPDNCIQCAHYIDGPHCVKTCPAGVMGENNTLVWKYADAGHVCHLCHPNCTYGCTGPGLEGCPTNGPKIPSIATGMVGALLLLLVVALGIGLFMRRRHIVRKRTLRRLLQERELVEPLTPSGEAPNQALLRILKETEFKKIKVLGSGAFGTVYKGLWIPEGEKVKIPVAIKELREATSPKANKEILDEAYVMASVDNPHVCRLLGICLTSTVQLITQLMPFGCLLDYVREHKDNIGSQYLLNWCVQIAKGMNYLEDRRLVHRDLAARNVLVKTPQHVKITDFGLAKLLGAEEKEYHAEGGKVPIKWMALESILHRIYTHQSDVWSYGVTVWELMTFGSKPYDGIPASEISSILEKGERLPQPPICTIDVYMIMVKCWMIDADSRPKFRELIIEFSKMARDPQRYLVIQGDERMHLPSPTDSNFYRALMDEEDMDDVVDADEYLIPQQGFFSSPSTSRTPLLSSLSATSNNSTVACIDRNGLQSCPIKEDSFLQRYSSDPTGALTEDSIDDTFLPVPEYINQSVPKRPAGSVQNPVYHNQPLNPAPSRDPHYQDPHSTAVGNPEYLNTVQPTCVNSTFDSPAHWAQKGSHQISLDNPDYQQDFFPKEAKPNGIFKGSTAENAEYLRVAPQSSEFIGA
Series [7] deals with PANC-1. Description: Antitumor activity against human PANC-1 cells xenografted in BALB/c nude mouse assessed as animal survival rate at 3 mg/kg, ip administered 6 times a week and measured for 100 days. Particulars: PANC-1, 2400 h, time 100 day. It counts as functional. On the technique in general: A xenograft is tissue or cells of one species grown in another, often human tumour cells in immunodeficient mice.

Series [8] deals with MCF7. As to the kind of experiment: Cytotoxicity against human MCF7 cells assessed as inhibition of cell growth at 30 uM incubated for 48 hrs by MTT assay relative to control. Type of series: functional.
Series [9] deals with PANC-1. Description: Cytotoxicity against human PANC-1 cells assessed as inhibition of cell growth at 30 uM incubated for 48 hrs by MTT assay relative to control. Type of series: functional. On the technique in general: Tetrazolium dyes change colour on reduction, which living cells bring about.
For series [10], the system named is MCF7. Description: Cytotoxicity against human MCF7 cells assessed as inhibition of cell growth incubated for 48 hrs by MTT assay. Type of series: functional, cell-based. Particulars: MCF7, 48 h.
The subject of the next series is MDA-MB-231. As to the kind of experiment: Cytotoxicity against human MDA-MB-231 cells assessed as inhibition of cell growth incubated for 48 hrs by MTT assay. It counts as functional, cell-based. The note with it: MDA-MB-231, 48 h.
Another series concerns HT-29. As to the kind of experiment: Cytotoxicity against human HT-29 cells assessed as inhibition of cell growth incubated for 48 hrs by MTT assay. Type of series: functional, cell-based. Particulars: HT-29, 48 h.
The next series has as its system DU-145. Description: Cytotoxicity against human DU-145 cells assessed as inhibition of cell growth incubated for 48 hrs by MTT assay. Type of series: functional, cell-based. The note with it: DU-145, 48 h.
Another series deals with U-937. Description: Cytotoxicity against human U-937 cells assessed as inhibition of cell growth incubated for 48 hrs by MTT assay. Type of series: functional, cell-based. The note with it: U-937, 48 h.
The subject of a further series is A549. Description: Cytotoxicity against human A549 cells assessed as inhibition of cell growth incubated for 48 hrs by MTT assay. It counts as functional, cell-based. Particulars: A549, 48 h.
The subject of series [11] is PANC-1. Description: Cytotoxicity against human PANC-1 cells assessed as inhibition of cell growth incubated for 48 hrs by MTT assay. Type of series: functional, cell-based. Particulars: PANC-1, 48 h.
Series [12] in a line: Cytotoxicity against CHO-K1 cells assessed as inhibition of cell growth incubated for 48 hrs by MTT assay. Type of series: toxicity, cell-based, Cricetulus griseus. The note with it: Chinese hamster.
Series [13] can be described thus: Cytotoxicity against HEK293 cells assessed as inhibition of cell growth incubated for 48 hrs by MTT assay. Type of series: toxicity, cell-based. The note with it: human.
Series [14] in a line: Safety index, ratio of IC50 for CHO-K1 cells to IC50 for human MCF7 cells. It counts as toxicity. The note with it: Chinese hamster (CHO-K1), CHO-K1 cells versus MCF7 cells, read-out: Ratio IC50.
The nature of series [15]: Safety index, ratio of IC50 for CHO-K1 cells to IC50 for human MDA-MB-231 cells. It counts as toxicity. The note with it: Chinese hamster (CHO-K1), CHO-K1 cells versus MDA-MB-231 cells, read-out: Ratio IC50.
Series [16] can be described thus: Safety index, ratio of IC50 for CHO-K1 cells to IC50 for human HT-29 cells. It counts as toxicity. Particulars: Chinese hamster (CHO-K1), CHO-K1 cells versus HT-29 cells, read-out: Ratio IC50.
A short description of series [17]: Safety index, ratio of IC50 for CHO-K1 cells to IC50 for human DU-145 cells. It counts as toxicity. Particulars: Chinese hamster (CHO-K1), CHO-K1 cells versus DU-145 cells, read-out: Ratio IC50.
Series [18] in a line: Safety index, ratio of IC50 for CHO-K1 cells to IC50 for human U-937 cells. Type of series: toxicity. Particulars: Chinese hamster (CHO-K1), CHO-K1 cells versus U-937 cells, read-out: Ratio IC50.
Series [19] can be described thus: Safety index, ratio of IC50 for CHO-K1 cells to IC50 for human A549 cells. Particulars: Chinese hamster (CHO-K1), CHO-K1 cells versus A549 cells, read-out: Ratio IC50. It counts as toxicity.
The nature of series [20]: Safety index, ratio of IC50 for CHO-K1 cells to IC50 for human PANC-1 cells. Type of series: toxicity. Particulars: Chinese hamster (CHO-K1), CHO-K1 cells versus PANC-1 cells, read-out: Ratio IC50.
A short description of series [21]: Safety index, ratio of IC50 for HEK293 cells to IC50 for human MCF7 cells. The note with it: HEK293 cells versus MCF7 cells, read-out: Ratio IC50. It counts as toxicity.
A short description of series [22]: Safety index, ratio of IC50 for HEK293 cells to IC50 for human MDA-MB-231 cells. Type of series: toxicity. The note with it: HEK293 cells versus MDA-MB-231 cells, read-out: Ratio IC50.
A short description of series [23]: Safety index, ratio of IC50 for HEK293 cells to IC50 for human HT-29 cells. It counts as toxicity. The note with it: HEK293 cells versus HT-29 cells, read-out: Ratio IC50.
The nature of series [24]: Safety index, ratio of IC50 for HEK293 cells to IC50 for human DU-145 cells. It counts as toxicity. Particulars: HEK293 cells versus DU-145 cells, read-out: Ratio IC50.
A short description of series [25]: Safety index, ratio of IC50 for HEK293 cells to IC50 for human U-937 cells. Type of series: toxicity. The note with it: HEK293 cells versus U-937 cells, read-out: Ratio IC50.
Series [26] in a line: Safety index, ratio of IC50 for HEK293 cells to IC50 for human A549 cells. It counts as toxicity. Particulars: HEK293 cells versus A549 cells, read-out: Ratio IC50.
The nature of series [27]: Safety index, ratio of IC50 for HEK293 cells to IC50 for human PANC-1 cells. It counts as toxicity. The note with it: HEK293 cells versus PANC-1 cells, read-out: Ratio IC50.
The subject of series [28] is PANC-1. As to the kind of experiment: Antitumor activity against human PANC-1 cells xenografted in BALB/c nude mouse assessed as reduction in tumor growth at 50 mg/kg, ip administered 3 times a week and measured on 30 days by caliper analysis. It counts as functional, organism-based. Particulars: time 30.0 day.
Series [29] has as its system PANC-1. Description: Antitumor activity against human PANC-1 cells xenografted in BALB/c nude mouse assessed as animal survival rate at 50 mg/kg, ip administered 3 times a week and measured for 100 days. Type of series: functional. Particulars: PANC-1, 2400 h, time 100 day.

The source made the active and inactive calls. The rule behind the calls is not given here. A value given as a limit tells only on which side of the number the result lay.

This is an account of results in ChEMBL document CHEMBL5360540, “Antitumor effect of 3-(quinolin-2-ylmethylene)-4,6-dimethyl-5-hydroxy-7-azaoxindole down-regulating the Gas6-Axl axis” (Eur J Med Chem, 2023).

Vascular endothelial growth factor receptor 2, sequence (P35968 whole entry): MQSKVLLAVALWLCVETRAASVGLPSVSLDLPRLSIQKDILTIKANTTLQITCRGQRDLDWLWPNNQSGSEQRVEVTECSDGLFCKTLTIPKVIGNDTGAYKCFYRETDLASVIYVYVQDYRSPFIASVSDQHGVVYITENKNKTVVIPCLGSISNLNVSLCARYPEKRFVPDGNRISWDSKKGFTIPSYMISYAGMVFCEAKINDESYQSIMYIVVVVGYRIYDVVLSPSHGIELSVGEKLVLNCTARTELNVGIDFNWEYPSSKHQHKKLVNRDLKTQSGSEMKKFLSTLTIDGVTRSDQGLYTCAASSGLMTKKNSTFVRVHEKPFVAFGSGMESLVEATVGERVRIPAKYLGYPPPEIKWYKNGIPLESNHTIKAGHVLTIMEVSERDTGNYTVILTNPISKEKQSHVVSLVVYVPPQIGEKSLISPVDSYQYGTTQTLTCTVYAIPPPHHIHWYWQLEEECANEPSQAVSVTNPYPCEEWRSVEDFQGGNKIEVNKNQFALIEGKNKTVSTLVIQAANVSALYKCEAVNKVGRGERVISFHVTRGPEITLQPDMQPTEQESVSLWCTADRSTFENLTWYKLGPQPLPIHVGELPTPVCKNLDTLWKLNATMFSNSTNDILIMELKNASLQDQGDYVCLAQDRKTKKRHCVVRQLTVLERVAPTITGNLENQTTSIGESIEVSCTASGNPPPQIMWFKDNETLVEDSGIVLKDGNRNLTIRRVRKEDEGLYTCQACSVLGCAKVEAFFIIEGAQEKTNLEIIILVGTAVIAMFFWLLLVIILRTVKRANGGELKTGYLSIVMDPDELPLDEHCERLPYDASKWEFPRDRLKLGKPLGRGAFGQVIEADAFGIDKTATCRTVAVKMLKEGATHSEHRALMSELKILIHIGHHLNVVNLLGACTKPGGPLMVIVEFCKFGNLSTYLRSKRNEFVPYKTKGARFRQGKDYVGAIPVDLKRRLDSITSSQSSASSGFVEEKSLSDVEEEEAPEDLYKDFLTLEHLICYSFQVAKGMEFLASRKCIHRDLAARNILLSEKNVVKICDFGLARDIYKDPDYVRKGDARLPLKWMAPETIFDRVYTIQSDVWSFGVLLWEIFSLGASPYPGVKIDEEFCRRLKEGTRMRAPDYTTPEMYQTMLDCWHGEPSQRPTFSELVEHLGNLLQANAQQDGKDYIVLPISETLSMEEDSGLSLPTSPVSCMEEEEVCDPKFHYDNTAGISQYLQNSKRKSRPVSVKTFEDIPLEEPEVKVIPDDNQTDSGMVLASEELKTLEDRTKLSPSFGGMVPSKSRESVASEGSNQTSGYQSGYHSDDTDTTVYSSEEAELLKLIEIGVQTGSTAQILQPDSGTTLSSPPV

As usually defined, the IC50 is the concentration needed to halve the response being measured. Consider `Cc1nc2c(c(C)c1O)/C(=C/c1ccc3ccccc3n1)C(=O)N2`, for which the IC50 in series [1] is more than 10 µM; in [2], 1 µM; in [3], 5.7 µM; in series [4], more than 10 µM; in series [5], 12.9 µM; in [6], 18.8 µM. In addition, the survival at 3 mg/kg in the series on PANC-1 [7] was found to be 100%.
Usually inhibition stands for how much of the control response was suppressed. `Cc1nc2c(c(C)c1O)/C(=C/c1cccnc1)C(=O)N2`: the inhibition at 30 µM came to 78% in the series on MCF7 [8] and 72.8% in the series on PANC-1 [9]. Besides, the concentration for half-maximal inhibition (IC50) amounted to 17.4 µM in the series on MCF7 [10]; 9.6 µM in the series on MDA-MB-231; 20 µM with HT-29; 1.2 µM in the series on DU-145; 14.5 µM with U-937; 13.8 µM with A549. The concentration for half-maximal inhibition (IC50) in the series with PANC-1 [11] amounted to 51.3 µM. Further, the figures for the IC50 at 48 h in series [12] and in series [13] were 78.5 µM and 33 µM, respectively. In addition, the selectivity ratio in [14] is 4.5; in series [15], 8.2; in [16], 3.9; in series [17], 65.4; in series [18], 5.4; in series [19] it was 5.7. Besides, the selectivity ratio in [20] stood at 1.5; in series [21], 1.9; in [22] it was 3.4; in series [23] it was 1.7; in series [24], 27.5; in series [25] it was 2.3. Moreover, the selectivity ratio in [26] stood at 2.4; in series [27], 0.6.
Turning to `Nc1ccn([C@@H]2O[C@H](CO)[C@@H](O)C2(F)F)c(=O)n1` [GEMCITABINE], the result in the series with PANC-1 [28] was inactive. Also, the survival at 50 mg/kg in the series on PANC-1 [29] came to 80%.
Regarding `Cc1nc2c(c(C)c1O)/C(=C/c1ccc(N(C)C)cc1)C(=O)N2`, the inhibition at 30 µM in the series on MCF7 [8] was found to be 62.5%; in the series with PANC-1 [9] it was 66.4%. Moreover, the IC50 in the series on MCF7 [10] is 13.2 µM; in the series with MDA-MB-231, 12.1 µM; in the series with HT-29, 36.3 µM; in the series on DU-145 it was 1.1 µM; in the series on U-937, more than 90 µM; in the series with A549, 13.2 µM. For the same compound, the IC50 in the series with PANC-1 [11] worked out at 13.8 µM. Moreover, the IC50 at 48 h in series [12] and in [13] was more than 90 µM each time. Also, the selectivity ratio in series [14] was more than 6.8; in [15] it was more than 7.4; in series [16], more than 2.5; in series [17], more than 81.8; in [18], more than 1; in series [19], more than 6.8. In addition, the selectivity ratio in series [20] was more than 6.5; in [21] it was more than 6.8; in [22], more than 7.4; in [23], more than 2.5; in [24], more than 81.8; in [25] it was more than 1. In addition, the selectivity ratio was more than 6.8 in [26] and more than 6.5 in series [27].
